Laboratory results reported in US11708562B2, “Differentiation of human embryonic stem cells” (Janssen Biotech, Inc., priority 2006, dated 2023).

Columns and labels:
[1] = test system: human embryonic stem cell line H9; assay: PCR of definitive endoderm and other lineage markers after activin A, cells on mouse embryonic fibroblasts; assay type: cell-based; conditions: 100 ng/ml activin A
Source text: The level of expression of definitive endoderm markers was examined by PCR (FIGS. 1A and 1B), FACS (results summarized in Table I), and immunohistochemistry (FIGS. 2A, 2B and 2C).
Cells were harvested at the time points indicated in FIGS. 3A, 3B, 3C and 3D and assayed by PCR for the expression of genes shown (FIGS. 3A, 3B, 3C, 3D, 4A, 4B, 5A and 5B).
RNA samples were purified by binding to a silica-gel membrane (Rneasy Mini Kit, Qiagen, CA) in the presence of an ethanol-containing, high-salt buffer followed by washing to remove contaminants. The RNA was further purified using a TURBO DNA-free kit (Ambion, INC), and high-quality RNA was then eluted in water. Yield and purity were assessed by A260 and A280 readings on a spectrophotometer. cDNA copies were made from purified RNA using an ABI (ABI, CA) high capacity cDNA archive kit.
Final data were expressed relative to a calibrator sample.

[2] = test system: H9P49 and H1P46 embryonic stem cells; assay: Definitive endoderm on MATRIGEL: effective dose of activin A with GSK-3B inhibitor or Wnt-3A; assay type: cell-based, human
Source text: FIGS. 31A, 31B, 31C and 31D is for H9P49 cells and FIGS. 31E and 31F is for H1P46 cells.

H9 cultures = assay: Definitive endoderm on varying concentrations of […] with Wnt-3a (real-time PCR); assay type: cell-based, human; conditions: low serum, 100 ng/ml activin A and 20 ng/ml Wnt-3a
Method: H9 cells were cultured on plates coated with regular […] at a 1:60 to 1:10 dilution. The plates were coated with […] for 1 hr at room temperature.

Activin A: a member of the TGFβ superfamily; growth factor (R&D Systems) used to differentiate human embryonic stem cells
anterior endoderm markers Cerberus, Otx-1 and Hex genes [1]: significant up regulation | expression of extraembryonic endoderm markers Sox7 and AFP ([1]; up to seven days): time-dependent decrease | lineage formed at lower doses of activin A [2]: formation of extraembryonic endoderm | expression of CXCR4, GATA4, Goosecoid, HNF-3beta, and SOX-17 genes (H9 cultures): led to the expression
